According to patent US20100099130A1, “METHODS AND DEVICES FOR MONITORING PLATELET FUNCTION” (PLACOR INC., priority 2006, published 2010):

Columns and labels:
platelets = assay: Platelet Reactivity Test (PRT), time to platelet mass formation in whole blood of volunteers; type: in vivo, human; settings: after taking aspirin, most volunteers; without aspirin the test concludes in less than 100 seconds
Method: The PRT test is used to activate platelet gel formations using a small (20 microliter) whole blood sample to help identify proper platelet function in the absence of platelet drug therapy and to identify inhibited platelet function in the presence of platelet drug therapy. The test is performed by running a small quantity of blood through a channel restriction that will induce the formation of platelet gels and trap them in a focused area similar to the way platelets are activated and focused in the body. Cartridge 150 has capillary tube inlet 160 that can receive a capillary tube filled with blood. A capillary tube filled with blood can be attached to capillary tube port 200. Conduit 230 leads from capillary tube port 200 to junction 270 and junction 270 splits into conduit 250 and passageways 240, 260. Conduit 250 and passageways 240, 260 include overflow wells 280. Conduit 250 and passageways 240, 260 lead to ports 180, 170, 190, respectively. […] In a preferred embodiment, the cartridge 150 has a bar code that is read by the instrument 400. […] The instrument 400 will report the average of the platelet reactivity times determined from the blood in passageways 240 and 260. […] If the two platelet reactivity times determined from the blood in passageways 240 and 260 are greatly different, the instrument will indicate that the test is invalid. […]

platelet adhesion = settings: long-term aspirin therapy; cited from earlier work

## CC(=O)Oc1ccccc1C(=O)O [aspirin]
platelets
  PRT (platelet reactivity time): greater than 150 seconds
Platelet adhesion
  individuals who do not achieve inhibition of platelet adhesion: up to 30%
